Assay results published in patent publication US20230346820A1, “METHODS AND COMPOSITIONS FOR THE TREATMENT OF SARS-COV-2” (priority 2020, published 2023).
Counter-ions that a name gives are not always drawn.

Assays:
[1] = system: SARS-CoV-2
[2] = in vitro; conditions: human, CC50 [μM] (Geomeans, n ≥ 2 except where indicated: *n = 1)
[3] = system: SARS-CoV-2; assay: microbe, parasite or virus in culture; conditions: Severe acute respiratory syndrome coronavirus 2, HeLa-ACE2, 24 h, read-out: CoV-2 EC50 [μM] (Geomeans, n ≥ 2)
[4] = system: HeLa-ACE2 cells; assay: cells; format: cell-based, human; conditions: Homo sapiens, HeLa-ACE2, read-out: HeLa-ACE-2 EC50 [μM] (Geomeans, n ≥ 2)

SMILES	HeLa-ACE2 CC50/CoV-2 EC50 [1]	CC50 [2] [µM]	EC50 [3] [µM]	EC50 [4] [µM]
CNC(=O)c1cc(Oc2ccc(NC(=O)Nc3ccc(Cl)c(C(F)(F)F)c3)cc2)ccn1 [Sorafenib]	>1.52	> 8.65	> 5.67	–
COc1cc2c(Nc3ccc(Cl)c(Cl)c3F)ncnc2cc1OC[C@@H]1C[C@@H]2CN(C)C[C@@H]2C1 [tesevatinib]	>8.46	> 20.6	2.44	> 8.16
CC[C@@H](C(=O)O)[C@@H]1O[C@@H]([C@@H](C)[C@H](O)[C@H](C)C(=O)[C@H](CC)[C@H]2O[C@]3(C=C[C@@H](O)[C@]4(CC[C@@](C)([C@H]5CC[C@](O)(CC)[C@H](C)O5)O4)O3)[C@H](C)C[C@@H]2C)[C@@H](C)C[C@@H]1C [Narasin]	2.31	3.47	1.5	5.99
COC(CNCC(C)C)COc1c(C)csc1C(=O)CCc1ccccc1 (centres unmarked) [LG-6-101]	10.3	> 35.6	3.46	–
CN1C[C@@H]2c3ccccc3Oc3ccc(Cl)cc3[C@H]2C1 (racemic) [Asenapine maleate]	–	> 35.6	–	–
OC(CNCC(O)C1CCc2cc(F)ccc2O1)C1CCc2cc(F)ccc2O1 (centres unmarked) [nebivolol hydrochloride]	>3.75	> 11.1	2.96	–
CNCc1ccc(OC)c([C@]2(N3CCC[C@H]3c3ncco3)C(=O)N(S(=O)(=O)c3ccc(OC)cc3)c3ccc(Cl)cc32)c1 [RFM-011-200-5]	>4.37	> 8.46	1.93	4.24
COCC12CN(S(=O)(=O)c3ccc4cc(Cl)ccc4c3)CC(=O)N1CC1(CCN(c3ccncc3)CC1)O2 (centres unmarked) [M-55532]	6.81	18.9	2.77	> 6.45
CC1=C(c2ccc(O)cc2)[C@H](c2ccc(OCCN3CCCCC3)cc2)Oc2cc(O)ccc21 [ACOLBIFENE]	2.8	13.4	4.79	> 9.59
CN1CCN(C2Cc3cc(Cl)ccc3Sc3ccccc32)CC1 (centres unmarked) [OCTOCLOTHEPIN analog]	>11.42	> 28.4	2.49	> 8.73
COc1ccc2nc3cc(Cl)ccc3c(Nc3cc(CN4CCCC4)c(O)c(CN4CCCC4)c3)c2n1 [pyronaridine]	>4.86	> 7.39	1.52	3.41
O=c1c2ccccc2[se]n1-c1ccccc1 [Ebselen]	3.13	> 26.6	> 8.5	6.02
COc1ccc2cc1Oc1ccc(cc1)C[C@H]1c3c(cc4c(c3Oc3cc5c(cc3OC)CCN(C)[C@@H]5C2)OCO4)CCN1C [Cepharanthine]	>25.76	> 25.4	–	–
CN(C)CCC1CCc2cc(OCc3ccc(-c4ccccc4)cc3)ccc2C1 (centres unmarked) [TAK-070]	7.19	10.1	1.41	> 5.5
CN1CCN(C2=Cc3cc(Cl)ccc3/C(=C\C#N)c3ccccc32)CC1 [Alkene Stereoisomer analog of Rilapine]	>13.32	> 39.8	2.99	> 9.59
CCOc1cc(C(C)(C)C)ccc1C1=N[C@@](C)(c2ccc(Cl)cc2)[C@@](C)(c2ccc(Cl)cc2)N1C(=O)N1CCN(CCCS(C)(=O)=O)CC1 [R-7112]	>4.61	> 14.9	3.23	> 9.6
CCOC(=O)/C=C/[C@H](C[C@@H]1CCNC1=O)NC(=O)[C@@H](CC(=O)[C@@H](NC(=O)c1cc(C)on1)C(C)C)Cc1ccc(F)cc1 [Rupinavir]	4.15	> 39.8	> 9.59	> 9.59
OCCN1CCN(CC/C=C2\c3ccccc3Sc3ccc(Cl)cc32)CC1 [ZUCLPEN THIXL]	>8.08	> 16.8	2.08	> 9.59
CC(C)(/C=N/OCC(=O)O)Cc1c(SC(C)(C)C)c2cc(OCc3ccc4ccccc4n3)ccc2n1Cc1ccc(Cl)cc1 [A 81834]	>3.02	> 22.6	> 7.47	> 9.59
COc1cc(C(C)=O)ccc1OCCCN1CCC(C(O)(c2ccc(F)cc2)c2ccc(F)cc2)CC1 [AHR-5333]	5.44	> 24.7	> 4.53	> 7.1
CCOC(=O)c1c(CSc2ccccc2)n(C)c2cc(Br)c(O)c(CN(C)C)c12 [Arbidol]	4.88	> 29.1	> 5.97	> 9.34
Oc1ccc(CCN2CCC(Nc3nc4ccccc4n3Cc3ccc(F)cc3)CC2)cc1 [DESMETHYLASTEMIZOLE]	6.81	16.2	2.38	> 9.59
